Results on five compounds are retold here after patent US8541457B2, “Aminothiazole derivatives as human stearoyl-CoA desaturase inhibitors” (Xenon Pharmaceuticals Inc., priority 2005, dated 2013).

As usually defined, the melting point is the temperature of the solid-liquid transition.

As for `Cc1nc(NC(=O)c2ccccc2)sc1C(=O)NNC(=O)c1ccccc1` [Example 9, N-(5-(2-Benzoylhydrazinecarbonyl)-4-methylthiazol-2-yl)benzamide], the melting point was in the range of 258 to 260 °C.

Regarding `Cc1nc(NC(=O)c2ccccc2)sc1C(=O)n1ccnc1` [Example 10, N-(5-(1H-Imidazole-1-carbonyl)-4-methylthiazol-2-yl)benzamide], the melting point was 228 to 231 °C. The compound `COc1cc(C(=O)Nc2nc(C)c(C(=O)NCc3ccccc3)s2)ccn1` [Example 13, N-Benzyl-2-(2-methoxyisonicotinamido)-4-methylthiazole-5-carboxamide] registered a melting point of 188 to 190 °C. Consider `Cc1nc(NC(=O)c2cc[nH]c(=O)c2)sc1C(=O)NCc1ccccc1` [Example 14, N-Benzyl-4-methyl-2-(2-oxo-1,2-dihydropyridine-4-carboxamido)thiazole-5-carboxamide], for which the melting point was 290 to 292 °C. Consider `Cc1nc(NC(=O)c2ccn(-c3ccccc3)c(=O)c2)sc1C(=O)NCc1ccccc1` [Example 15, N-Benzyl-4-methyl-2-(2-oxo-1-phenyl-1,2-dihydropyridine-4-carboxamido)thiazole-5-carboxamide], for which the melting point was in the range of 260 to 262 °C.
